In PMC10709440, “High-throughput ligand profile characterization in novel cell lines expressing seven heterologous insect olfactory receptors for the detection of volatile plant biomarkers” (Scientific Reports, 2023):

Tests used:
Drosophila OR13a = target: T1, Drosophila OR13a (Drosophila melanogaster, UniProt Q9VXL0); assay: cell-based; parameters: GCaMP6 calcium fluorescence in stable HEK293 OR+ORCO lines; peak dF normalised to 50 uM VUAA1 (=1); conditions: HEK293; relative to 50 uM VUAA1 response; below 0.05 set to 0; read-out: % activation
T1 construct: expressed in transfected cells
T1 sequence (Q9VXL0 1-418): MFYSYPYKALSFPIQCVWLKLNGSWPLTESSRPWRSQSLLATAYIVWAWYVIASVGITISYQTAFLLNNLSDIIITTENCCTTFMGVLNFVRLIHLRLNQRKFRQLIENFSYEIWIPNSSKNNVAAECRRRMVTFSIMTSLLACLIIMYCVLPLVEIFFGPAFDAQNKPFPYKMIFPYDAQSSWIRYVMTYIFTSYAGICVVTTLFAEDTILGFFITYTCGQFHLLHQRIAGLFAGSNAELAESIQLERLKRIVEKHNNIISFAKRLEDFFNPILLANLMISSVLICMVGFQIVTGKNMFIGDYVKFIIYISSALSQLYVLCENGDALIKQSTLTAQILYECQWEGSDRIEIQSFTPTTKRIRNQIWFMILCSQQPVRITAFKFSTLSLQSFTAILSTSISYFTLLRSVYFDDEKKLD
T1 sequence (Q9VNB5 1-486 partner): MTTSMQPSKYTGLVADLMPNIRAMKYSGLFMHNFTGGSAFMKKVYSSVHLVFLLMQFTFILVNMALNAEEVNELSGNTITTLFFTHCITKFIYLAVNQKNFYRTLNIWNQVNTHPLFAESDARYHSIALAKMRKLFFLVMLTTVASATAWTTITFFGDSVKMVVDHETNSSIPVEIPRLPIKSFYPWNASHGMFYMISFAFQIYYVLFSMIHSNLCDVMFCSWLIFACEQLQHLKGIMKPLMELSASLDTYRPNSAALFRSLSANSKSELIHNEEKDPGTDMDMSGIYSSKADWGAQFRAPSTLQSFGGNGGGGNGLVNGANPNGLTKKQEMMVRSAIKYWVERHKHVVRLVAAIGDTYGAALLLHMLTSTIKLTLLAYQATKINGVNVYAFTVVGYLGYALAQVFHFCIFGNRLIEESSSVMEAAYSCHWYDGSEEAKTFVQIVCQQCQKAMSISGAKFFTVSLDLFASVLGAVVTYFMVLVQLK
Procedure: (§1) Twelve thousand to 18,000 cells were plated into each well of a black wall, transparent bottom 384-well microplate (Greiner) 48 h or 72 h before the measurements and were simultaneously treated with 1 μg/mL doxycycline. Typically, three columns were filled with one OR expressing cell line, each row was treated with the same compound (three technical replicates for each OR), and each responsive VOC-OR combination was measured at least three times on different days. The plate has 24 columns, thus we could record responses in up to eight different cell lines in each plate. On the day of the experiment, the growth medium was replaced with 20 µL assay buffer/well (140 mM NaCl, 5 mM KCl, 2 mM CaCl2, 1 mM MgCl2, 5 mM HEPES-Na, 20 mM glucose, pH 7.3, 340 mOsm). […] Baseline fluorescence (F0) was recorded for 5 s, after which 7 µL VOC buffer (140 mM NaCl, 5 mM KCl, 2 mM CaCl2, 1 mM MgCl2, 5 mM HEPES-Na, 31 mM glucose, 0.1% DMSO, pH 7.3, 340 mOsm) was injected into each well in one row and the fluorescence response was recorded for an additional 30 s, at a rate of one read/sec. VOC solutions (VOC buffer with 4× concentration of the final measured VOC concentration, 9 µL/well was injected) were measured on the same wells in a second round with the same protocol. Each individual concentration of a specific VOC sample was recorded in three wells for the same cell line on the same microplate. The raw data were exported in xls file format, F0 and FMAX values, and the fluorescence intensity changes (∆F) were calculated in Excel (Microsoft) (Supplementary file Data summary.xlsx) using the following equation: ΔF=FMAX-F0/F0 (see also Fig. 1C). On each plate, we recorded the response of each cell line to 50 µM VUAA1. The average of these ∆F values of each cell line were used to calculate the VUAA1-normalized values for the rest of the plate, by dividing VOC response ∆F values by the average VUAA1 response ∆F value of the corresponding OR cell line. Each VOC-OR combination was measured three times as tec The recorded FMAX, F0, ∆F, VUAA1-normalized ∆F values, as well as the OR name, the name of the tested sample, and the final concentration for each well were copied into supplementary file Data summary.xlsx, that was used to summarize all the plates recorded. Here, the averages of the measurements were calculated for each receptor-VOC-concentration combination. […] Each VOC was measured at 1, 10, and 100 µM final concentration on each receptor. VUAA1-normalized response was calculated as described in methods. Values are averages of at least three biological replicates for responsive combinations and two for the non-responsive combinations. The chemical structures of the strong and medium ligands are shown for each cell line. Heat map: white-green colors correspond to the lowest-highest values measured for each cell line.

Drosophila OR49b = target: T2, Drosophila OR49b (Drosophila melanogaster, UniProt Q9V6H2); assay: cell-based; parameters: GCaMP6 calcium fluorescence in stable HEK293 OR+ORCO lines; peak dF normalised to 50 uM VUAA1 (=1); conditions: HEK293; relative to 50 uM VUAA1 response; below 0.05 set to 0; read-out: % activation
T2 construct: expressed in transfected cells
T2 sequence (Q9V6H2 1-375): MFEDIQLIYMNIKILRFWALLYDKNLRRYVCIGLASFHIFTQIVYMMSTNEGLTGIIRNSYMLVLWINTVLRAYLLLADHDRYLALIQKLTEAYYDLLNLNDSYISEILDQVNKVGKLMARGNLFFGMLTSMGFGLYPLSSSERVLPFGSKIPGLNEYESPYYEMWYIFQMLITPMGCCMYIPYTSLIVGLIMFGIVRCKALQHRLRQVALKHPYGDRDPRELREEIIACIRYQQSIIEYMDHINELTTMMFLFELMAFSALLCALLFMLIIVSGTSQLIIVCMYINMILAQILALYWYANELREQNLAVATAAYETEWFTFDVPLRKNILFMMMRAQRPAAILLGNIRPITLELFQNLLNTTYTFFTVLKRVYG
T2 sequence (Q9VNB5 1-486 partner): T1 sequence (Q9VNB5 1-486 partner)
Procedure: as §1

Question: Which results are given for `CC/C=C/CCO` [e3-hexenol]?
Answer: activity at 1 µM (Drosophila OR13a): 0%; activity at 10 µM (Drosophila OR13a): 0%; activity at 100 µM (Drosophila OR13a): 7.11%; activity at 1 µM (Drosophila OR49b): 0%; activity at 10 µM (Drosophila OR49b): 0%; activity at 100 µM (Drosophila OR49b): 7.89%
